This note sets out measurements from BindingDB's records for doi:10.1021/acs.jmedchem.5b01091 (University of Manchester, 2016).

The nature of this experiment: Inhibition of NLRP3 in mouse J774 macrophages assessed as reduction in Bacillus anthracis lethal toxin induced cell death.

In the case of `CC1(C)C(=O)C=C[C@]2(C)[C@H]3CC[C@@]4(C)[C@H](c5ccoc5)OC(=O)[C@H]5O[C@]54[C@]3(C)C=C[C@@H]12`, the IC50 was 5 µM.
